Assay results from patent US20090176817A1, “Method of Treatment of Diarrhea-Predominant Irritable Bowel Syndrome in a Subject” (priority 2005, published 2009).
Marks after values point to notes of the source that are not given here.

System: healthy, elderly subjects
Assay: Study K.241.5014: gastric emptying time, elderly, 8 mg TID
Assay type: in vivo, human
Settings: 8 mg TID oral 14 days, mean (SD)
Excerpt: The effect of cilansetron on gastric emptying time and colonic transit time has been studied in 1 clinical study in healthy young subjects and 2 studies in elderly subjects. For measurement of gastric emptying time, breath samples for the determination of the ^12C/^13C ratio were taken on the last day of each treatment period immediately after ingestion of a ^13C labeled meal. The patients' breath was collected in separate 15-minute intervals, for four hours in total. ^13CO2 measurements were performed with an isotope ratio mass spectrometer. The half-life (TK) and lag-time (Tlag), which describe the duration of gastric emptying, were used as the primary parameters to evaluate gastric emptying time. In all 3 studies, colonic transit time was measured by administration of radio-opaque markers for the last six days of each treatment period, followed by a single abdominal X-ray image at 24 hours after ingestion of the last set of markers. The numbers of markers within the colon were used to calculate segmental (right colon, left colon, and rectosigmoid) and total colonic transit time.
Studies K.241.5013 and K.241.5014 were randomized, double-blind, placebo-controlled, 2-way crossover studies in 8 healthy male and female elderly subjects, each (ITT population, aged 64-83 years in K.241.5013 and 66-84 years in K.241.5014). […]

Cc1nccn1C[C@H]1CCc2c(c3cccc4c3n2CCC4)C1=O [Cilansetron, (R)-(−)-4,5,6,8,9,10-hexahydro-10-[(2-methyl-1H-imidazol-1-yl)methyl]-11H-pyrido-[3,2,1-jk]-carbazol-11-one]
gastric emptying time T½: 166 (18) min | gastric emptying time Tlag (significant vs placebo (p < 0.05)): 114 (18)* min
